Experimental data: US9657081B2, “Inhibiting peptides derived from triggering receptor expressed on myeloid cells-1 (TREM-1) TREM-like transcript 1 (TLT-1) for treatment of cardiovascular diseases” (INSERM (Institut National de la Sante et de la Recherche …, priority 2013, dated 2017)

How the values were obtained:
Type in all cases: in vivo
TREM-1 [1] = assay: Rat model of sepsis-induced cardiac dysfunction, intrinsic cardiac function by Millar catheter; parameters: dpdtmax/Ved / PRSW: unit not given beside the values; FEVG / ESPVR: unit not given here
Description: TREM-1- and TLT-1-derived peptides administration during rat model of sepsis-induced cardiac dysfunction is associated with an increase of intrinsic cardiac function measured by Millar catheter (FEVG, ESPVR, dpdtmax/Ved, PRSW).
(§1) Rats were anaesthetized with isoflurane and a 2 F high-fidelity micro-manometer catheter (SPR-407, Millar Institute, Houston, Tex., USA) was inserted into the LV via the right carotid artery. The Millar catheter was connected to a Harvard Data Acquisition System interfaced with a PC with the AcqKnowledge III software (ACQ 3.2).

TREM-1 [2] = assay: Rat model of myocardial ischemia-reperfusion, cardiac function by conductance catheter; parameters: PRSW: unit not given beside the values; Emax / ESPVR: unit not given here; conditions: six weeks after ischemia-reperfusion; 3 mg/kg once a day for 5 days
Method: Adult male Wistar rats were subjected to myocardial ischemia-reperfusion and were randomly grouped (n=10) to receive repeated TREM-1- and TLT-1-derived peptides (3 mg/kg in 0.2 mL NaCl 0.9% once a day for 5 days) or scrambled-LR12 (3 mg/kg in 0.2 mL NaCl 0.9% once a day for 5 days). Six weeks after myocardial injury, cardiac function was investigated under anaesthesia by using a conductance catheter. Emax, ESPVR, and PRSW were higher in animals treated with TREM-1- and TLT-1-derived peptides than in control rats. All p<0.02 [controls versus LR12]).
Animals received same surgery than in permanent ischemia, but with reperfusion of ischemic area by release of the LAD ligation after 60 minutes of ischemia. The same protocol as described above was then applied.
as §1
To investigate the role of TREM-1- and TLT-1-derived peptides in a more relevant model of MI, we performed a transient coronary artery ligation (ischemia-reperfusion model: IR) in rats. After randomisation, animals were then imaged under anaesthesia (micro-TEP) and administered with TREM-1- and TLT-1-derived peptides (3 mg/kg daily for 5 days i.p.) or LR12-scrambled peptide. Imaging was then repeated at 6 weeks before we studied cardiac function by using a conductance catheter (Millar).

TREM-1 [3] = target: T1, TREM-1 (Mus musculus, UniProt Q9JKE2); assay: Mouse model of myocardial infarction, survival; conditions: 100 μg daily for 5 days i.p.
T1 construct: endogenous in cells; host or cells: living mice (C57BL, Balb/c, ApoE-/-), in vivo
T1 sequence (Q9JKE2 21-230): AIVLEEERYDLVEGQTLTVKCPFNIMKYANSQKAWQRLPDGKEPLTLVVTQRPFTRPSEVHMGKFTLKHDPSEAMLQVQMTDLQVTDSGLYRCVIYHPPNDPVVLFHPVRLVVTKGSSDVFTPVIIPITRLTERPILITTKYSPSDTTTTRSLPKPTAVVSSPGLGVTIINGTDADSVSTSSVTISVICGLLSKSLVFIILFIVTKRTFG
Method: Adult male Balb/c mice (20-23 g) were subjected to myocardial ischemia and were randomly grouped (n=10-15 per group) to receive repeated TREM-1- and TLT-1-derived peptides (100 μg in 0.2 mL NaCl 0.9% once a day for 5 days), scrambled-LR12 (100 μg in 0.2 mL NaCl 0.9% once a day for 5 days), or 10 μg anti-TREM-1 mAb in 0.2 mL NaCl 0.9% i.p. injections. Survival was monitored over 1 wk and analyzed by Log Rank test. (There were no deaths after the 5th day). Data are representative of at least 15 different experiments.
All procedures were performed on mice male C57BL/C ranging in age from 6-8 weeks. Mice were anesthetized by an intraperitoneal injection of xylazine (60 mg/kg) and fixed in supine position. The trachea was intubated and ventilated (the tidal volume was 200 μl/25 g and the respiratory rate was 120 breaths/min). After a left thoracotomy, the left coronary artery was identified and ligated with an 8-0 prolene surgical suture at 1.0 mm distal from tip of the left auricle. LAD occlusion was confirmed by a change in myocardial color from red to white in the ischemia area (Left ventricle). The chest was closed and the skin was sutured with 6-0 silk. […]
Mice were monitored after surgery for mortality. Mice were randomized to receive or not peptides (daily ip injection for 5 days, 5 mg/kg) and monitored for survival. […]

Substance	ESPVR (TREM-1 [1])	FEVG (TREM-1 [1])	PRSW (TREM-1 [1])	dpdtmax/Ved (TREM-1 [1])	ESPVR (TREM-1 [2])	Emax (TREM-1 [2])	PRSW (TREM-1 [2])	mice died (TREM-1 [3])
LQVEDSGLYQCVIYQPP (listed as Homo sapiens) [TREM1-LP17]	2.7 ± 0.3	75.9 ± 8.9	150 + 8	156 ± 11	2.2 ± 0.3	5.9 ± 0.8	110 ± 5	
EDAGEY (listed as Homo sapiens) [TLT1-LR6-2]	2.3 ± 0.2	75 ± 5.9	139 ± 10	155 ± 12	1.8 ± 0.1	6.5 ± 0.9	99 ± 8	
GLYQCV (listed as Homo sapiens) [TREM1-LP6-3]	2.9 ± 0.4	78.6 ± 7.4	139 ± 8	163 ± 10	2.3 ± 0.4	5.8 ± 0.5	99 ± 8	
GEYGCM (listed as Homo sapiens) [TLT-1LR6-3]	2.2 ± 0.2	78 ± 8.7	149 ± 6	157 ± 10	1.7 ± 0.3	5.2 ± 0.4	109 ± 6	
EDSGLY (listed as Homo sapiens) [TREM1-LP6-2]	2.7 ± 0.1	79.4 ± 9.9	144 ± 6	155 ± 15	2.2 ± 0.1	6 ± 0.6	104 ± 5	
LQEEDAGEYGCMVDGAR (listed as Homo sapiens) [TLT1-LR17]	2.5 ± 0.3	75.6 ± 7.2	145 ± 6	150 ± 12	2 ± 0.2	5.1 ± 0.6	105 ± 6	
ELMEGGQECADY (synthetic peptide scramble) [TLT-1-LR12scr, reference compound]	1.6 ± 0.3	39.9 ± 4.9	88 ± 8	61 ± 12	1.1 ± 0.3	2.7 ± 0.3	65 ± 8	40%
LQVEDSGLYQCV (listed as Homo sapiens) [TREM1-LP12]	2.8 ± 0.2	72 ± 9.4	139 ± 6	158 ± 18	2.3 ± 0.4	4.5 ± 0.4	99 ± 4	
LQEEDA (listed as Homo sapiens) [TLT1-LR6-1]	2.9 ± 0.3	79.6 ± 7.4	142 ± 8	160 ± 15	2.4 ± 0.4	4.5 ± 0.6	102 ± 6	
LQVEDS (listed as Homo sapiens) [TREM1-LP6-1]	2.5 ± 0.3	76 ± 5.9	145 ± 6	150 ± 20	2 ± 0.3	5.5 ± 0.4	105 ± 6	
